The numbers were not newly measured in US7052717B2, “Storage stable thyroxine active drug formulations and methods for their production” (Mylan Pharmaceuticals Inc., priority 2001, dated 2006), which cites them from elsewhere.

SMILES strings stand for the structures.

For the data set the following is noted: high humidity, light or high temperature; Won, Pharm. Res. 9(1):131-137, 1992.

As to `N[C@@H](Cc1cc(I)c(Oc2cc(I)c(O)c(I)c2)c(I)c1)C(=O)O` [Levothyroxine sodium, levothyroxine sodium], the “stability of drug substance” value is “quite unstable, hygroscopic and degrades rapidly when subjected to high humidity, light or high temperature”.
